# Like-named read-outs stand apart in the source and are kept apart here.
# Tests used:
# [1] = Moisture sorption analysis (DVS); assay type: physicochemical; details: for hygroscopicity by DVS isotherm / moisture uptake (DVS): 25° C.
# Experimental: Moisture Sorption Analysis-Moisture sorption isotherm was determined using a DVS Endeavour at 25° C. in an aluminum pan with water as the solvent (closed loop) and nitrogen gas flow at 200 sccm. The sample was analyzed from 40% to 0% to 90% to 0% to 90% to 0% to 40% RH in 5% RH steps.
# [2] = Moisture sorption analysis (DVS); assay type: physicochemical; details: for moisture uptake (DVS): 25° C.
# [3] = Comparative solubilities of Form 1 and Form 1E in biorelevant media; assay type: physicochemical; details: for solubility: read-out: Solubility Conc
# [4] = PK properties of Form 1E in male dogs under fasted and fed conditions; assay type: in vivo; details: for AUC(0-inf) / AUC(0-t) / CL/F / Cmax / MRT / Tmax / half-life: male, dog, plasma, po; for half-life: read-out: t1/2, z (converted)
# [5] = Single dose dog PK, Form 1E compared to Compound A free base; assay type: in vivo, dogs; details: FIG. 5C
# Experimental: The pharmacokinetic (PK) properties of Form 1E was evaluated in dogs.
# [6] = Physical and chemical stability of Form 1E; assay type: physicochemical
# [7] = 30 mg/kg, pH 2, male dogs, Study A, 30.0 mg/kg p.o., Vehicle 1 (water/malonic acid pH 2.0), Fasted
# [8] = 30 mg/kg, pH 2, male dogs, Study A, 30.0 mg/kg p.o., Vehicle 1 (water/malonic acid pH 2.0), Fed (kibble)
# [9] = 50 mg/kg, pH 7, male dogs, Study B, Vehicle 2 (water/MSA pH7.0), Fasted
# [10] = 50 mg/kg, pH 7, male dogs, Study B, Vehicle 2 (water/MSA pH7.0), Fed (high fat)
compound,measurement,setting,value
O=C1OCCCc2c(Cl)cc3[nH]ncc3c2-c2ncc3c(nc(OC[C@@]45CCCN4C[C@H](F)C5)nc3c2F)N2CCOC[C@H](C2)O1 [Form 1A],hygroscopicity by DVS isotherm,[1],hygroscopic
same,moisture uptake (DVS),[2]; at 95% relative humidity,5.4 wt. %
O=C1OCCCc2c(Cl)cc3[nH]ncc3c2-c2ncc3c(nc(OC[C@@]45CCCN4C[C@H](F)C5)nc3c2F)N2CCOC[C@H](C2)O1 [Form 1B],hygroscopicity by DVS isotherm,[1],hygroscopic
same,moisture uptake (DVS),[2]; at 95% relative humidity,4.7 wt. %
O=C1OCCCc2c(Cl)cc3[nH]ncc3c2-c2ncc3c(nc(OC[C@@]45CCCN4C[C@H](F)C5)nc3c2F)N2CCOC[C@H](C2)O1 [Form 1E],solubility,"[3]; FaSSGF, pH 1.99, fassgf or other biorelevant",5990 µg/mL
same,solubility,"[3]; FaSSIF, pH 4.86, fassif",1730 µg/mL
same,solubility,"[3]; FeSSIF, pH 4.58, fessif",2500 µg/mL
same,solubility,"[3]; PBS, pH 4.55, aqueous buffer",1300 µg/mL
same,solubility in several media relative to Form 1,"[3]; several media, compared with Form 1",higher solubility
same,Equilibrium crystal form,[3]; solubility sample in FaSSGF,Form 1E
same,Equilibrium crystal form,[3]; solubility sample in FaSSIF,Form 1E
same,Equilibrium crystal form,[3]; solubility sample in FeSSIF,Form 1E
same,Equilibrium crystal form,[3]; solubility sample in H2O,Form 1E
same,Equilibrium crystal form,[3]; solubility sample in PBS,Form 1E
same,solubility,"[3]; water, H2O, pH 3.93",7760 µg/mL
same,"plasma exposure (Cmax and AUC), fed versus fasted conditions","[4]; dogs, FIGS. 5D and 5E, kibble or high fat diet",did not show a difference
same,emesis,"[4]; dogs, prior studies, 50 mg/kg and a high fat diet",suffered from emesis
same,AUC(0-inf),[4]; [7],14.2 µM·h
same,AUC(0-t),[4]; [7],14.1 µM·h
same,CL/F,[4]; [7],73.5 mL/min/kg
same,Cmax,[4]; [7],5820 nM
same,MRT,[4]; [7],3.16 h
same,Tmax,[4]; [7],0.312 h
same,half-life,[4]; [7],2.67 h
same,AUC(0-inf),[4]; [8],17 µM·h
same,AUC(0-t),[4]; [8],17 µM·h
same,CL/F,[4]; [8],55.8 mL/min/kg
same,Cmax,[4]; [8],4290 nM
same,MRT,[4]; [8],4.14 h
same,Tmax,[4]; [8],1.62 h
same,half-life,[4]; [8],2.96 h
same,half-life,"[4]; 50 mg/kg, pH 7, male dogs, Study B, 50.0 mg/kg, Vehicle 2 (water/MSA pH7.0), Fasted",3.47 h
same,half-life,"[4]; 50 mg/kg, pH 7, male dogs, Study B, 50.0 mg/kg, Vehicle 2 (water/MSA pH7.0), Fed (high fat)",4.83 h
same,AUC(0-inf),[4]; [9],3.54 µM·h
same,AUC(0-t),[4]; [9],3.53 µM·h
same,CL/F,[4]; [9],783 mL/min/kg
same,Cmax,[4]; [9],1350 nM
same,MRT,[4]; [9],3.79 h
same,Tmax,[4]; [9],0.9 h
same,AUC(0-inf),[4]; [10],3.91 µM·h
same,AUC(0-t),[4]; [10],3.89 µM·h
same,CL/F,[4]; [10],1160 mL/min/kg
same,Cmax,[4]; [10],1050 nM
same,MRT,[4]; [10],4.26 h
same,Tmax,[4]; [10],1.5 h
same,improvement in plasma concentration compared to Compound A free base,[5],~2 ×
same,hygroscopicity by DVS isotherm,[1],non-hygroscopic
same,moisture uptake (DVS),[1]; at 90% relative humidity,0.6 wt. %
same,hygroscopicity compared to all other forms,[1]; compared to all other solid forms of Compound A,lowest hygroscopicity
same,physical stability,[6]; accelerated conditions,physically stable
same,chemically stable for,[6]; at 5° C.,more than 2 years
O=C1OCCCc2c(Cl)cc3[nH]ncc3c2-c2ncc3c(nc(OC[C@@]45CCCN4C[C@H](F)C5)nc3c2F)N2CCOC[C@H](C2)O1 [Form 1],solubility,"[3]; FaSSGF, pH 2.06, fassgf or other biorelevant",4420 µg/mL
same,solubility,"[3]; FaSSIF, pH 7.15, fassif",35 µg/mL
same,solubility,"[3]; FeSSIF, pH 5.51, fessif",560 µg/mL
same,solubility,"[3]; PBS, pH 7.04, aqueous buffer",10 µg/mL
same,Equilibrium crystal form,[3]; solubility sample in FaSSGF,Form 1
same,Equilibrium crystal form,[3]; solubility sample in FaSSIF,Form 1
same,Equilibrium crystal form,[3]; solubility sample in FeSSIF,Form 1
same,Equilibrium crystal form,[3]; solubility sample in H2O,Form 1
same,Equilibrium crystal form,[3]; solubility sample in PBS,Form 1
same,solubility,"[3]; water, H2O, pH 8.73",0.3 µg/mL
O=C1OCCCc2c(Cl)cc3[nH]ncc3c2-c2ncc3c(nc(OC[C@@]45CCCN4C[C@H](F)C5)nc3c2F)N2CCOC[C@H](C2)O1 [Form A1-A],hygroscopicity as per TGA and XRPD analysis,"[2]; judged from TGA and XRPD, no DVS reported",hygroscopic
O=C1OCCCc2c(Cl)cc3[nH]ncc3c2-c2ncc3c(nc(OC[C@@]45CCCN4C[C@H](F)C5)nc3c2F)N2CCOC[C@H](C2)O1 [Form C1],hygroscopicity by DVS isotherm,[1],hygroscopic
same,moisture uptake (DVS),[1]; at 85% relative humidity,4.0 wt. %
same,behaviour in DVS at 95% relative humidity,[2]; at 95% relative humidity,deliquescence
O=C1OCCCc2c(Cl)cc3[nH]ncc3c2-c2ncc3c(nc(OC[C@@]45CCCN4C[C@H](F)C5)nc3c2F)N2CCOC[C@H](C2)O1 [Form C-P],hygroscopicity by DVS isotherm,[1],hygroscopic
same,moisture uptake (DVS),[1]; at 80% RH,3.08 wt. %

# — patent publication US20260184727A1, “SOLID FORMS OF MACROCYCLIC COMPOUNDS AND USES THEREOF” (AMGEN INC., priority 2024, published 2026)
